Results as given in patent US9745328B2, “Flap modulators” (JANSSEN PHARMACEUTICA NV, priority 2013, dated 2017).
Structures can show the parent of a compound that is named as a salt.

biological target: human FLAP (Homo sapiens (Human), UniProt P20292); test: FLAP binding assay (HTRF format); conditions: Table 6 (additional runs), human FLAP wild type
Summary of the method: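 HTRF ratio read-out; two independent plates, samples in duplicate on each, values averaged across plates.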

human FLAP, sequence (P20292 whole entry): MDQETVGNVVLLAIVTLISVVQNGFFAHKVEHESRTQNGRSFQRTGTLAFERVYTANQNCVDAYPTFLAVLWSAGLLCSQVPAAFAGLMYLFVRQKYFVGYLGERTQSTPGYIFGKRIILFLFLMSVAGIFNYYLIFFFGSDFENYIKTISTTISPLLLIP

Ki [nM] | Compound
0.5 | Nc1cnc(-c2ccc(-c3ccccc3S(=O)(=O)N3CCN(c4cnccn4)CC3)cc2F)cn1 [Example 176, 5-{3-Fluoro-2′-[(4-pyrazin-2-ylpiperazin-1-yl)sulfonyl]biphenyl-4-yl}pyrazin-2-amine]
~1320 | Nc1cnc(-c2ccc(-c3ccccc3N)cc2F)cn1 [Example 178, 5-(2′-Amino-3-fluorobiphenyl-4-yl)pyrazin-2-amine]
63.2 | Nc1cnc(-c2ccc(-c3ccccc3SC(F)(F)F)cc2F)cn1 [Example 189, 5-{3-Fluoro-2′-[(trifluoromethyl)-sulfanyl]biphenyl-4-yl}pyrazin-2-amine]
66.2 | CC(C)(C)Sc1ccccc1-c1ccc(-c2cnc(N)cn2)c(F)c1 [Example 190, 5-[2′-(tert-Butylsulfanyl)-3-fluorobiphenyl-4-yl]pyrazin-2-amine]
30.9 | CC(C)CS(=O)(=O)c1ccccc1-c1ccc(-c2cnc(N)cn2)c(F)c1 [Example 193, 5-{3-Fluoro-2′-[(2-methylpropyl)sulfonyyl]iphenyl-4-yl}pyrazin-2-amine]
7.1 | Nc1cnc(-c2ccc(-c3ccccc3S(=O)(=O)C3CC3)cc2F)cn1 [Example 197, 5-[2′-(Cyclopropylsulfonyl)-3-fluorobiphenyl-4-yl]pyrazin-2-amine]
4.5 | Nc1cnc(-c2ccc(-c3ccccc3SCCNC(=O)c3ccccc3)cc2F)cn1 [Example 204, N-(2-{[4′-(5-Aminopyrazin-2-yl)-3′-fluorobiphenyl-2-yl]sulfanyl}ethyl)benzamide]
2.4 | Nc1cnc(-c2ccc(-c3ccccc3Sc3ncccn3)cc2F)cn1 [Example 213, 5-[3-Fluoro-2′-(pyrimidin-2-ylsulfanyl)biphenyl-4-yl]pyrazin-2-amine hydrochloride]
2.4 | Nc1cnc(-c2ccc(-c3ccccc3Sc3cc(N)ncn3)cc2F)cn1 [Example 215, 6-{[4′-(5-Aminopyrazin-2-yl)-3′-fluorobiphenyl-2-yl]sulfanyl}pyrimidin-4-amine hydrochloride]
2.2 | Nc1cnc(-c2ccc(-c3ccccc3Sc3nccc(N)n3)cc2F)cn1 [Example 216, 2-{1,4′-(5-Aminopyrazin-2-yl)-3′-fluorobiphenyl-2-yl]sulfanyl}pyrimidin-4-amine hydrochloride]
1.2 | Nc1cnc(-c2ccc(-c3ccccc3Sc3ncncc3N)cc2F)cn1 [Example 217, 4-{[4′-(5-Aminopyrazin-2-yl)-3′-fluorobiphenyl-2-yl]sulfanyl}pyrimidin-5-amine hydrochloride]
3.3 | Nc1cnc(-c2ccc(-c3ccccc3Sc3cnccn3)cc2F)cn1 [Example 218, 5-[3-Fluoro-2′-(pyrazin-2-ylsulfanyl)biphenyl-4-yl]pyrazin-2′ amine hydrochloride]
2.4 | Nc1cnc(-c2ccc(-c3ccccc3CSc3ccc(N)nn3)cc2F)cn1 [Example 240, 6-(((4′-(5-aminopyrazin-2-yl)-3′-fluoro-[1,1′-biphenyl]-2-yl)methyl)thio)pyridazin-3-amine hydrochloride]
0.7 | Nc1cnc(-c2ccc(-c3ccccc3Sc3ccnc(N)n3)cc2F)cn1 [Example 242, 4-{[4′(5-Aminopyrazin-2-yl)-3′-fluorobiphenyl-2-yl]sulfanyl}pyrimidin-2-amine hydrochloride]
3.3 | Nc1cnc(-c2ccc(-c3ccccc3CSc3ccncn3)cc2F)cn1 [Example 243, 5-(3-fluoro-2′-((pyrimidin-4-ylthio)methyl)-[1,1′-biphenyl]-4-yl)pyrazin-2-amine hydrochloride]

The next lines start with the compound.

Compound | Ki [nM]
Nc1cnc(-c2ccc(-c3ccccc3S(=O)(=O)N3CCN(c4ncccn4)CC3)cc2F)cn1 [Example 177] | 0.5
Nc1cnc(-c2ccc(-c3ccccc3S(=O)(=O)NC3(CO)CCCC3)cc2F)cn1 [Example 179] | 0.4
Nc1cnc(-c2ccc(-c3ccccc3NS(=O)(=O)N3CCCC3)cc2F)cn1 [Example 181, N-[4′-(5-Aminopyrazin-2-yl)-3′-fluorobiphenyl-2-yl]pyrroildine-1-sulfonamide] | 6.7
Nc1cnc(-c2ccc(-c3ccccc3S(=O)(=O)N3CC[C@H](O)C3)cc2F)cn1 [Example 184, (3S)-1-{[4′-(5-Aminopyrazin-2-yl)-3′-fluorobiphenyl-2-yl]sulfonyl}pyrrolidin-3-ol] | 8.9
Nc1cnc(-c2ccc(-c3ccccc3S(=O)(=O)N3CC[C@@H](O)C3)cc2F)cn1 [Example 185, (3R)-1-{[4′-(5-Aminopyrazin-2-yl)-3′-fluoroblphenyl-2-yl]sulfonyl}pyrrolidin-3-ol] | 9.5
CCCS(=O)(=O)c1ccccc1-c1ccc(-c2cnc(N)cn2)c(F)c1 [Example 192, 5-[3-Fluoro-2′-(propylsulfonyl)biphenyl-4-yl]pyrazin-2-amine] | 48.3
CC(C)(C)S(=O)(=O)c1ccccc1-c1ccc(-c2cnc(N)cn2)c(F)c1 [Example 194, 5-[2′-(tert-Butylsulfonyl)-3-fluorobiphenyl-4-yl]pyrazin-2-amine] | 156
CNS(=O)(=O)c1cc(C(F)(F)F)ccc1-c1ccc(-c2cnc(N)cn2)c(F)c1 [Example 208, 4′-(5-Aminopyrazin-2-yl)-3′-fluoro-N-methyl-4-(trifluoromethyl)biphenyl-2-sulfonamide] | 0.4
Nc1cnc(-c2ccc(-c3ccc(C(F)(F)F)cc3S(=O)(=O)NCCO)cc2F)cn1 [Example 210, 4′-(5-aminopyrazin-2-yl)-3′-fluoro-N-(2-hydroxyethyl)-4-(trifluoromethyl)biphenyl-2-sulfonamide] | 0.4
CCNS(=O)(=O)c1cc(C(F)(F)F)ccc1-c1ccc(-c2cnc(N)cn2)c(F)c1 [Example 211, 4′-(5-Aminopyrazin-2-yl)-N-ethyl-3′-fluoro-4-(trifluoromethyl)biphenyl-2-sulfonamide] | 0.5
C[C@H](O)CNS(=O)(=O)Cc1ccccc1-c1ccc(-c2cnc(N)cn2)c(F)c1 [Example 227, (S)-1-[4′-(5-Aminopyrazin-2-yl)-3′-fluorobiphenyl-2-yl]-N-[(2S)-2-hydroxypropyl]methanesulfonamide hydrochloride] | 670
C[C@@H](O)CNS(=O)(=O)Cc1ccccc1-c1ccc(-c2cnc(N)cn2)c(F)c1 [Example 228, (R)-1-[4′-(5-Aminopyrazin-2-yl)-3′-fluorobiphenyl-2-yl]-N-[(2S)-2-hydroxypropyl]methanesulfonamide] | 1060
Nc1cnc(-c2ccc(-c3ccccc3CS(=O)(=O)N3CCC(N)CC3)cc2F)cn1 [Example 229, 5-(2′-{[(4-Aminopiperidin.-1-yl)sulfonyl]methyl}-3-fluorobiphenyl-4-yl)pyrazin-2-amine hydrochloride] | 1070
CC[C@@H](CO)NS(=O)(=O)c1ccccc1-c1ccc(-c2cnc(N)nc2)c(F)c1 [Example 248, 4′-(2-Aminopyrimidin-5-yl)-3′-fluoro-N-[(1S)-1-(hydroxymethyl)propyl]biphenyl-2-sulfonamide] | 56.8
CC(C)(CO)CNS(=O)(=O)c1ccccc1-c1ccc(-c2cnc(N)nc2)c(F)c1 [Example 251, 4′-(2-Aminopyrimidin-5-yl)-3′-fluoro-N-(3-hydroxy-2,2-dimethylpropyl)biphenyl-2-sulfonamide] | 4.5
CC(CO)(CO)NS(=O)(=O)c1ccccc1-c1ccc(-c2cnc(N)nc2)c(F)c1 [Example 255, 4′-(2-Aminopyrimidin-5-yl)-3′-fluoro-N-[2-hydroxy-1-(hydroxymethyl)-1-methylethyl]biphenyl-2-sulfonamide] | 8.1
CC(C)N(CCO)S(=O)(=O)c1ccccc1-c1ccc(-c2cnc(N)nc2)c(F)c1 [Example 261, 4′-(2-Aminopyrimidin-5-yl)-3′-fluoro-N-(2-hydroxyethyl)-N-(1-methylethyl)biphenyl-2-sulfonamide] | 5.6
Nc1ncc(-c2ccc(-c3ccccc3S(=O)(=O)N[C@H]3CCNC3=O)cc2F)cn1 [Example 263, 4′-(2-Aminopyrimidin-5-yl)-3′-fluoro-N-[(3S)-2-oxopyrrolidin-3-yl]biphenyl-2-sulfonamide] | 127
Nc1ncc(-c2ccc(-c3ccccc3S(=O)(=O)N3CC(O)C3)cc2F)cn1 [Example 265, 1-{[4′-(2-Aminopyrimidin-5-yl)-3′-fluorobiphenyl-2-yl]sulfonyl}azetidin-3-ol trifluoroacetic acid salt] | 35.5
Nc1ncc(-c2ccc(-c3ccccc3S(=O)(=O)N[C@@H]3CCCNC3=O)cc2F)cn1 [Example 266, 4′-(2-Aminopyrimidin-5-yl)-3′-fluoro-N-[(3R)-2-oxopiperidin-3-yl]biphenyl-2-sulfonamide trifluoroacetic acid salt] | 133
Nc1ncc(-c2ccc(-c3ccccc3S(=O)(=O)N[C@H]3CCCNC3=O)cc2F)cn1 [Example 267, 4′-(2-Aminopyrimidin-5-yl)-3′-fluoro-N-[(3S)-2-oxopiperidin-3-yl]biphenyl-2-sulfonamide trifluoroacetic acid salt] | 185
CC(C)(O)CNS(=O)(=O)c1ccccc1-c1ccc(-c2cnc(N)nc2)c(F)c1 [Example 272, 4′-(2-Aminopyrimidin-5-y)-3′-fluoro-N-(2-hydroxy-2-methylpropyl)biphenyl-2-sulfonamide trifluoroacetic acid salt] | 26.9
CC(C)(CO)NS(=O)(=O)c1ccccc1-c1ccc(-c2cnc(N)nc2)c(F)c1 [Example 280, 4′-(2-.Aminopyrimidin-5-yl)-3′-fluoro-N-(2-hydroxy-1,1-dimethylethyl)biphenyl-2-sulfonamide trifluoroacetic acid salt] | 3.3
Nc1ncc(-c2ccc(-c3ccccc3S(=O)(=O)N3CCN(C4CC4)CC3)cc2F)cn1 [Example 281, 5-{2′-[(4-Cyclopropylpiperazin-1-yl)sulfonyl]-3-fluorobiphenyl-4-yl}pyrimidin-2-amine trifluoroacetic acid salt] | 60.8
Nc1ncc(-c2ccc(-c3ccccc3S(=O)(=O)Nc3ccccc3)cc2F)cn1 [Example 285, 4′-(2-Aminopyrimidin-5-yl)-3′-fluoro-N-phenylbiphenyl-2-sulfonamide trifluoroacetic acid salt] | 3.3

same assay, conditions: human FLAP wild type, a calculated value of 0.000 indicates Ki less than 1 nM

Ki [nM] | Compound
< 1 | Nc1cnc(-c2ccc(-c3ccccc3S(=O)(=O)N3CCN(c4cnccn4)CC3)cc2F)cn1 [Example 176, 5-{3-Fluoro-2′-[(4-pyrazin-2-ylpiperazin-1-yl)sulfonyl]biphenyl-4-yl}pyrazin-2-amine]
< 1 | Nc1cnc(-c2ccc(-c3ccccc3S(=O)(=O)N3CCN(c4ncccn4)CC3)cc2F)cn1 [Example 177]
< 1 | Nc1cnc(-c2ccc(-c3ccccc3S(=O)(=O)NC3(CO)CCCC3)cc2F)cn1 [Example 179]
< 1 | CNS(=O)(=O)c1cc(C(F)(F)F)ccc1-c1ccc(-c2cnc(N)cn2)c(F)c1 [Example 208, 4′-(5-Aminopyrazin-2-yl)-3′-fluoro-N-methyl-4-(trifluoromethyl)biphenyl-2-sulfonamide]
< 1 | Nc1cnc(-c2ccc(-c3ccc(C(F)(F)F)cc3S(=O)(=O)NCCO)cc2F)cn1 [Example 210, 4′-(5-aminopyrazin-2-yl)-3′-fluoro-N-(2-hydroxyethyl)-4-(trifluoromethyl)biphenyl-2-sulfonamide]
